Reference: US20230077362A1 (CORTEVA AGRISCIENCE LLC, priority 2019, published 2023)
Read-outs that look alike come from different tables or passages of the source.

Key:
[1] = tested on: Cabbage Looper (Trichoplusia ni) ("CL"), second instar larvae; experiment: Bioassay on cabbage looper (CL), 128-well diet tray assay; format: in vivo
How it was run: (§1)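 After sealing with a clear self-adhesive lid, the trays are incubated at 25° C. with 14 h light and 10 h dark for 5 to 7 days; mortality in each well is recorded as a percentage and averaged across the eight wells.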

[2] = tested on: Beet Armyworm (Spodoptera exigua) ("BAW"), second instar larvae; experiment: Bioassay on beet armyworm (BAW), 128-well diet tray assay; format: in vivo; conditions: for pest or weed control at 50 µg/cm2: Spodoptera exigua
How it was run: as §1

[3] = Trichoplusia ni, read-out: CL rating
[4] = Trichoplusia ni, read-out: CL (Biological Results, rating)
[5] = read-out: BAW (Biological Results, rating)

Structure (SMILES)	pest or weed control at 50 µg/cm2 [1, 3] [%]	pest or weed control at 50 µg/cm2 ([2]; read-out: BAW rating) [%]	pest or weed control at 50 µg/cm2 [1, 4] [%]	pest or weed control at 50 µg/cm2 [2, 5] [%]	other results
N#Cc1ccc(OCCC(F)(F)F)c(N2C(=O)CS/C2=N\C(=O)Nc2ccc(-c3ncn(-c4ccc(S(=O)(=O)C(F)(F)F)cc4)n3)cc2F)c1 [Compound J372, (Z)-1-(3-(5-Cyano-2-(3,3,3-trifluoropropoxy)phenyl)-4-oxothiazolidin-2-ylidene)-3-(2-fluoro-4-(1-(4-((trifluoromethyl)sulfonyl)phenyl)-1H-1,2,4-triazol-3-yl)phenyl)urea]	50 to 100	50 to 100	–	–	–
Cc1ccc(COCC(F)(F)F)c(N2C(=O)CS/C2=N\C(=O)Nc2ccc(-n3cnc(-c4ccc(OC(F)(F)F)cc4)n3)cc2)c1 [Compound J403, (Z)-1-(3-(5-Methyl-2-((2,2,2-trifluoroethoxy)methyl)phenyl)-4-oxothiazolidin-2-ylidene)-3-(4-(3-(4-(trifluoromethoxy)phenyl)-1H-1,2,4-triazol-1-yl)phenyl)urea]	50 to 100	50 to 100	–	–	–
CC(=O)N(C)c1ccc(C(C)C)c(N2C(=O)CS/C2=N\C(=O)Nc2ccc(-c3ncn(-c4ccc(OC(F)(F)F)cc4)n3)cc2C)c1 [Compound J199, (Z)-N-(4-Isopropyl-3-(2-(((2-methyl-4-(1-(4-(trifluoromethoxy)phenyl)-1H-1,2,4-triazol-3-yl)phenyl)carbamoyl)imino)-4-oxothiazolidin-3-yl)phenyl)-N-methylacetamide]	–	–	50 to 100	50 to 100	–
Cc1ccc(COCCC(F)(F)F)c(N2C(=O)CS/C2=N\C(=O)Nc2ccc(-c3ncn(-c4ccccc4)n3)cc2C)c1 [Compound J781, (Z)-1-(3-(5-Methyl-2-((3,3,3-trifluoropropoxy)methyl)phenyl)-4-oxothiazolidin-2-ylidene)-3-(2-methyl-4-(1-phenyl-1H-1,2,4-triazol-3-yl)phenyl)urea]	50 to 100	50 to 100	–	–	–
COC(c1ccc(C)cc1N1C(=O)CS/C1=N\C(=O)Nc1ccc(-n2cnc(-c3ccc(OC(F)(F)F)cc3)n2)cc1C)C(F)(F)F (stereo not drawn) [Compound J443, (Z)-1-(3-(5-Methyl-2-(2,2,2-trifluoro-1-methoxyethyl)phenyl)-4-oxothiazolidin-2-ylidene)-3-(2-methyl-4-(3-(4-(trifluoromethoxy)phenyl)-1H-1,2,4-triazol-1-yl)phenyl)urea]	50 to 100	50 to 100	–	–	–
CC(=O)N(C)c1ccc(C(C)C)c(N2C(=O)CS/C2=N\C(=O)Nc2ccc(-c3ncn(-c4ccc(OC(F)(F)F)cc4)n3)cc2F)c1 [Compound J188, (Z)-N-(3-(2-(((2-Fluoro-4-(1-(4-(trifluoromethoxy)phenyl)-1H-1,2,4-triazol-3-yl)phenyl)carbamoyl)imino)-4-oxothiazolidin-3-yl)-4-isopropylphenyl)-N-methylacetamide]	–	–	50 to 100	50 to 100	–
Cc1ccc(C(C)C)c(N2C(=O)CS/C2=N\C(=O)Nc2ccc(-c3ncn(-c4ccc(OC(F)(F)F)cc4)n3)cc2C(C)C)c1 [Compound J99, (Z)-1-(2-Isopropyl-4-(1-(4-(trifluoromethoxy)phenyl)-1H-1,2,4-triazol-3-yl)phenyl)-3-(3-(2-isopropyl-5-methylphenyl)-4-oxothiazolidin-2-ylidene)urea]	–	–	50 to 100	50 to 100	–
CC(C)c1ccc(N(C)C)cc1N1C(=O)CS/C1=N\C(=O)Nc1ccc(-c2cn(-c3ccc(OC(F)(F)F)cc3)cn2)cc1 [Compound J529, (Z)-1-(3-(5-(Dimethylamino)-2-isopropylphenyl)-4-oxothiazolidin-2-ylidene)-3-(4-(1-(4-(trifluoromethoxy)phenyl)-1H-imidazol-4-yl)phenyl)urea]	50 to 100	50 to 100	–	–	–
CCCc1ccc(N(C)C)cc1N1C(=O)CS/C1=N\C(=O)Nc1ccc(-c2ncn(-c3ccc(OC(F)(F)F)cc3)n2)cc1C#N [Compound J247, (Z)-1-(2-Cyano-4-(1-(4-(trifluoromethoxy)phenyl)-1H-1,2,4-triazol-3-yl)phenyl)-3-(3-(5-(dimethylamino)-2-propylphenyl)-4-oxothiazolidin-2-ylidene)urea]	–	–	50 to 100	50 to 100	–
CCOCc1ccc(C)cc1N1C(=O)CS/C1=N\C(=O)Nc1ccc(-c2ncn(-c3ccc(OC(F)(F)F)cc3)n2)cc1C [Compound J206, (Z)-1-(3-(2-(Ethoxymethyl)-5-methylphenyl)-4-oxothiazolidin-2-ylidene)-3-(2-methyl-4-(1-(4-(trifluoromethoxy)phenyl)-1H-1,2,4-triazol-3-yl)phenyl)urea]	–	–	50 to 100	50 to 100	–
COC(c1ccc(C)cc1N1C(=O)CS/C1=N\C(=O)Nc1ccc(-c2cn(-c3ccc(C(F)(F)F)cn3)cn2)cc1F)C(F)(F)F (stereo not drawn) [Compound J485, (Z)-1-(2-Fluoro-4-(1-(5-(trifluoromethyl)pyridin-2-yl)-1H-imidazol-4-yl)phenyl)-3-(3-(5-methyl-2-(2,2,2-trifluoro-1-methoxyethyl)phenyl)-4-oxothiazolidin-2-ylidene)urea]	50 to 100	50 to 100	–	–	–
CN(C)c1cccc(N2C(=O)CS/C2=N\C(=O)Nc2ccc(-c3ncn(-c4ccc(OC(F)(F)F)cc4)n3)cc2F)c1 [Compound J84, (Z)-1-(3-(3-(Dimethylamino)phenyl)-4-oxothiazolidin-2-ylidene)-3-(2-fluoro-4-(1-(4-(trifluoromethoxy)phenyl)-1H-1,2,4-triazol-3-yl)phenyl)urea]	–	–	50 to 100	50 to 100	–
CCCc1ccc(C)cc1N1C(=O)CS/C1=N\C(=O)Nc1ccc(-c2ncn(-c3ccc(C(F)(F)F)cc3)n2)cc1C [Compound J15, (Z)-1-(3-(5-Methyl-2-propylphenyl)-4-oxothiazolidin-2-ylidene)-3-(2-methyl-4-(1-(4-(trifluoromethyl)phenyl)-1H-1,2,4-triazol-3-yl)phenyl)urea]	–	–	50 to 100	50 to 100	–
CC(=O)c1cc(-c2ncn(-c3ccc(OC(F)(F)F)cc3)n2)ccc1NC(=O)/N=C1\SCC(=O)N1c1cc(N(C)C)ccc1C(C)C [Compound J396, (Z)-1-(2-Acetyl-4-(1-(4-(trifluoromethoxy)phenyl)-1H-1,2,4-triazol-3-yl)phenyl)-3-(3-(5-(dimethylamino)-2-isopropylphenyl)-4-oxothiazolidin-2-ylidene)urea]	50 to 100	50 to 100	–	–	–
COC(C)c1ccc(C)cc1N1C(=O)CS/C1=N\C(=O)Nc1ccc(-c2ncn(-c3ccc(OC(F)(F)F)cn3)n2)cc1C#N (stereo not drawn) [Compound J267, (Z)-1-(2-Cyano-4-(1-(5-(trifluoromethoxy)pyridin-2-yl)-1H-1,2,4-triazol-3-yl)phenyl)-3-(3-(2-(1-methoxyethyl)-5-methylphenyl)-4-oxothiazolidin-2-ylidene)urea]	–	–	50 to 100	50 to 100	–
Cc1ccc(C(C)C)c(N2C(=O)CS/C2=N\C(=O)Nc2ccc(-c3ncn(-c4ccc(C(F)(F)F)cc4)n3)cc2F)c1 [Compound J61, (Z)-1-(2-Fluoro-4-(1-(4-(trifluoromethyl)phenyl)-1H-1,2,4-triazol-3-yl)phenyl)-3-(3-(2-isopropyl-5-methylphenyl)-4-oxothiazolidin-2-ylidene)urea]	–	–	50 to 100	50 to 100	–
Cc1ccc(C(F)(F)F)cc1N1C(=O)CS/C1=N\C(=O)Nc1ccc(-c2ncn(-c3ccc(OC(F)(F)F)cc3)n2)cc1F [Compound J799, (Z)-1-(2-Fluoro-4-(1-(4-(trifluoromethoxy)phenyl)-1H-1,2,4-triazol-3-yl)phenyl)-3-(3-(2-methyl-5-(trifluoromethyl)phenyl)-4-oxothiazolidin-2-ylidene)urea]	–	–	–	–	mortality at 50 µg/cm2 ([1]; Trichoplusia ni, Table ABC, species CL, 128-well diet tray assay, second instar larvae, read-out: CL rating (% control or mortality class)): 50 to 100%; BAW rating (% control or mortality class) ([2]; Table ABC, species BAW, 128-well diet tray assay, second instar larvae): A (50-100)
CCCc1ccc(N(C)C)cc1N1C(=O)CS/C1=N\C(=O)Nc1ccc(-c2ncn(-c3ccc(OC(F)(F)F)cn3)n2)cc1C(F)(F)F [Compound J278, (Z)-1-(3-(5-(Dimethylamino)-2-propylphenyl)-4-oxothiazolidin-2-ylidene)-3-(4-(1-(5-(trifluoromethoxy)pyridin-2-yl)-1H-1,2,4-triazol-3-yl)-2-(trifluoromethyl)phenyl)urea]	–	–	50 to 100	50 to 100	–
CC(C)c1cc(F)c(N(C)C)cc1N1C(=O)CS/C1=N\C(=O)Nc1ccc(-c2nnc(-c3ccc(OC(F)(F)F)cc3)o2)cc1F [Compound J432, (Z)-1-(3-(5-(Dimethylamino)-4-fluoro-2-isopropylphenyl)-4-oxothiazolidin-2-ylidene)-3-(2-fluoro-4-(5-(4-(trifluoromethoxy)phenyl)-1,3,4-oxadiazol-2-yl)phenyl)urea]	50 to 100	50 to 100	–	–	–
Cc1ccc(C(C)C)c(N2C(=O)CS/C2=N\C(=O)Nc2ccc(-c3ncn(-c4ccc(C(F)(F)F)cn4)n3)cc2C(F)(F)F)c1 [Compound J301, (Z)-1-(3-(2-Isopropyl-5-methylphenyl)-4-oxothiazolidin-2-ylidene)-3-(2-(trifluoromethyl)-4-(1-(5-(trifluoromethyl)pyridin-2-yl)-1H-1,2,4-triazol-3-yl)phenyl)urea]	–	–	50 to 100	50 to 100	–
Cc1cc(COCC(F)(F)F)c(N2C(=O)CS/C2=N\C(=O)Nc2ccc(-c3ncn(-c4ccc(C(F)(F)F)cc4)n3)cc2F)cc1C [Compound J660]	–	–	–	–	CL rating ([1]; Table ABC, species CL, C = not tested, D = no activity noticed): A (50-100); BAW rating ([2]; Table ABC, species BAW, C = not tested, D = no activity noticed): A (50-100)
